Target: T1, recombinant M. suis sPPase (rPPase) (Mycoplasma suis, UniProt C4RA40)
T1 construct: gene ppa; tetramer (80 kDa) inferred from immunoblot of native cells only
T1 sequence (C4RA40 1-164): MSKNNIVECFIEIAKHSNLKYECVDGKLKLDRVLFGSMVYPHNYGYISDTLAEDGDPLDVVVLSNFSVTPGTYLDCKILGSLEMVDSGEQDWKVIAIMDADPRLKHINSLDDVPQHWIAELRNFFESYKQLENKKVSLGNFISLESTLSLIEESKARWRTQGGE
Assay: phosphate release, molybdate/ascorbic acid colorimetry (Saheki)
Type: biochemical
Details: 50 mM MgCl2, pH 9.0, varied PPi (Figure 4E); standard assay: 5 mM Mg2+, 100 mM Tris pH 7.5, 1 mM PPi, 55 °C

O=P(O)(O)OP(=O)(O)O [PPi]
phosphate release, molybdate/ascorbic acid colorimetry (Saheki): Activity of M. suis rPPase using different PPi concentrations.

From PMC2916918, “Inorganic pyrophosphatase in uncultivable hemotrophic mycoplasmas: identification and properties of the enzyme from Mycoplasma suis” (BMC Microbiology, 2010)
